Test results: patent publication US20250179061A1 (SIRONAX LTD., priority 2022, published 2025)

Tested on: HT-29 cells
Assay: HT-29 necroptosis cell viability assay (TNF-α/SMAC mimetic/zVAD-FMK, CellTiter-Glo)
Type: cell-based
Settings: Homo sapiens, HT-29, HT-29 necroptosis cell viability assay; class symbols for IC50; read-out: Activity
Summary of the method: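 Necroptosis was triggered by TNF-α (10 ng/ml), SMAC mimetic (6 μM) and zVAD-FMK (10 μM) in serum-free medium during 20 h compound exposure (10 concentrations, threefold steps) of HT-29 cells. IC50 from duplicate dose-responses uses CellTiter-Glo ATP luminescence as viability read-out.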

Row | SMILES | IC50
1 | CC(C)(C)OC(=O)N1CCC2(CC1)CN(c1cc(Oc3ccc(-n4ncn(Cc5c(F)cccc5F)c4=O)cc3)ccn1)C2 [Example 480, tert-butyl2-(4-(4-(4-(2,6-difluorobenzyl)-5-oxo-4,5-dihydro-1H-1,2,4-triazol-1-yl)phenoxy)pyridin-2-yl)-2,7-diazaspiro[3.5]nonane-7-carboxylate] | < 0.1 µM
2 | O=c1n(Cc2c(F)cccc2F)cnn1-c1ccc(Oc2ccnc(N3C[C@H]4COC[C@H]4C3)c2)cc1 [Example 481, 4-(2,6-difluorobenzyl)-2-(4-((2-((3aR,6aS)-tetrahydro-1H-furo[3,4-c]pyrrol-5(3H)-yl)pyridin-4-yl)oxy)phenyl)-2,4-dihydro-3H-1,2,4-triazol-3-one] | 0.1 to 1 µM
3 | O=C1CC2(CCOCC2)CN1c1cc(Oc2ccc(-n3ncn(Cc4c(F)cccc4F)c3=O)cc2)ccn1 [Example 482, 2-(4-(4-(4-(2,6-difluorobenzyl)-5-oxo-4,5-dihydro-1H-1,2,4-triazol-1-yl)phenoxy)pyridin-2-yl)-8-oxa-2-azaspiro[4.5]decan-3-one] | 0.1 to 1 µM
4 | O=c1n(Cc2c(F)cccc2F)cnn1-c1ccc(Oc2ccnc(N3CC(OCC4CC4)C3)c2)cc1 [Example 483, 2-(4-((2-(3-(cyclopropylmethoxy)azetidin-1-yl)pyridin-4-yl)oxy)phenyl)-4-(2,6-difluorobenzyl)-2,4-dihydro-3H-1,2,4-triazol-3-one] | 0.1 to 1 µM
5 | O=c1n(Cc2c(F)cccc2F)cnn1-c1ccc(Oc2ccnc(NCC3CCCO3)c2)cc1 (centres unmarked) [Example 484, 4-(2,6-difluorobenzyl)-2-(4-((2-(((tetrahydrofuran-2-yl)methyl)amino)pyridin-4-yl)oxy)phenyl)-2,4-dihydro-3H-1,2,4-triazol-3-one] | 0.1 to 1 µM
6 | CN(c1cc(Oc2ccc(-n3ncn(Cc4c(F)cccc4F)c3=O)cc2)ccn1)C1CC1 [Example 485, 2-(4-((2-(cyclopropyl(methyl)amino)pyridin-4-yl)oxy)phenyl)-4-(2,6-difluorobenzyl)-2,4-dihydro-3H-1,2,4-triazol-3-one] | 0.1 to 1 µM
7 | CCOC1CN(c2cc(Oc3ccc(-n4ncn(Cc5c(Cl)cccc5Cl)c4=O)cc3)ccn2)C1 [Example 486, 4-(2,6-dichlorobenzyl)-2-(4-((2-(3-ethoxyazetidin-1-yl)pyridin-4-yl)oxy)phenyl)-2,4-dihydro-3H-1,2,4-triazol-3-one] | 0.1 to 1 µM
8 | CN(CC1CCCO1)c1nccc(Oc2ccc(-n3ncn(Cc4c(F)cccc4F)c3=O)cc2)c1F (centres unmarked) [Example 487, 4-(2,6-difluorobenzyl)-2-(4-((3-fluoro-2-(methyl((tetrahydrofuran-2-yl)methyl)amino)pyridin-4-yl)oxy)phenyl)-2,4-dihydro-3H-1,2,4-triazol-3-one] | 0.1 to 1 µM
9 | CCOC1(C)CN(c2nccc(Oc3ccc(-n4ncn(Cc5c(F)cccc5Cl)c4=O)cc3)c2F)C1 [Example 488, 4-(2-chloro-6-fluorobenzyl)-2-(4-((2-(3-ethoxy-3-methylazetidin-1-yl)-3-fluoropyridin-4-yl)oxy)phenyl)-2,4-dihydro-3H-1,2,4-triazol-3-one] | < 0.1 µM
10 | CCOC1(C)CN(c2cc(Oc3ccc(-n4ncn(Cc5c(F)cccc5Cl)c4=O)cc3)ccn2)C1 [Example 489, 4-(2-chloro-6-fluorobenzyl)-2-(4-((2-(3-ethoxy-3-methylazetidin-1-yl)pyridin-4-yl)oxy)phenyl)-2,4-dihydro-3H-1,2,4-triazol-3-one] | 0.1 to 1 µM
11 | CCOC1(C)CN(c2nccc(Oc3ccc(-n4ncn(Cc5c(F)cccc5F)c4=O)cc3)c2F)C1 [Example 490, 4-(2,6-difluorobenzyl)-2-(4-((2-(3-ethoxy-3-methylazetidin-1-yl)-3-fluoropyridin-4-yl)oxy)phenyl)-2,4-dihydro-3H-1,2,4-triazol-3-one] | < 0.1 µM
12 | COC1(C)CN(c2nccc(Oc3ccc(-n4ncn(Cc5c(F)cccc5Cl)c4=O)cc3)c2F)C1 [Example 491, 4-(2-chloro-6-fluorobenzyl)-2-(4-((3-fluoro-2-(3-methoxy-3-methylazetidin-1-yl)pyridin-4-yl)oxy)phenyl)-2,4-dihydro-3H-1,2,4-triazol-3-one] | < 0.1 µM
13 | CCOC1CN(c2cc(S(=O)(=O)c3ccc(-n4ncn(Cc5c(F)cccc5F)c4=O)cc3)ccn2)C1 [Example 492, 4-(2,6-difluorobenzyl)-2-(4-((2-(3-ethoxyazetidin-1-yl)pyridin-4-yl)sulfonyl)phenyl)-2,4-dihydro-3H-1,2,4-triazol-3-one] | < 0.1 µM
14 | CC1(O)CN(c2cc(S(=O)(=O)c3ccc(-n4ncn(Cc5c(F)cccc5F)c4=O)cc3)ccn2)C1 [Example 493, 4-(2,6-difluorobenzyl)-2-(4-((2-(3-hydroxy-3-methylazetidin-1-yl)pyridin-4-yl)sulfonyl)phenyl)-2,4-dihydro-3H-1,2,4-triazol-3-one] | < 0.1 µM
15 | CCOC1CN(c2nccc(Oc3ccc(-n4ncn(Cc5c(F)cccc5F)c4=O)cc3Cl)c2F)C1 [Example 494, 2-(3-chloro-4-((2-(3-ethoxyazetidin-1-yl)-3-fluoropyridin-4-yl)oxy)phenyl)-4-(2,6-difluorobenzyl)-2,4-dihydro-3H-1,2,4-triazol-3-one] | < 0.1 µM
16 | CCOC1CN(c2cc(Oc3ccc(-n4ncn(Cc5c(F)cccc5F)c4=O)cc3Cl)c(F)cn2)C1 [Example 495, 2-(3-chloro-4-((2-(3-ethoxyazetidin-1-yl)-5-fluoropyridin-4-yl)oxy)phenyl)-4-(2,6-difluorobenzyl)-2,4-dihydro-3H-1,2,4-triazol-3-one] | < 0.1 µM

Same assay, conditions: Homo sapiens, HT-29, HT-29 necroptosis cell viability, IC50 class symbols; read-out: Activity

Row | SMILES | IC50
17 | Cc1nc(C(C)(C)O)sc1Oc1ccc(-n2ncn(Cc3cnccc3Cl)c2=O)cc1F [Example 467, 4-((4-chloropyridin-3-yl)methyl)-2-(3-fluoro-4-((2-(2-hydroxypropan-2-yl)-4-methylthiazol-5-yl)oxy)phenyl)-2,4-dihydro-3H-1,2,4-triazol-3-one] | 0.1 to 1 µM
18 | Cc1nc(C(C)(C)O)sc1Oc1ncc(-n2ncn(Cc3c(F)cccc3F)c2=O)cc1Cl [Example 468, 2-(5-chloro-6-((2-(2-hydroxypropan-2-yl)-4-methylthiazol-5-yl)oxy)pyridin-3-yl)-4-(2,6-difluorobenzyl)-2,4-dihydro-3H-1,2,4-triazol-3-one] | < 0.1 µM
19 | Cc1nc(C(C)(C)O)sc1Oc1ccc(-n2ncn(Cc3ccccc3F)c2=O)cc1F [Example 469, 2-(3-fluoro-4-((2-(2-hydroxypropan-2-yl)-4-methylthiazol-5-yl)oxy)phenyl)-4-(2-fluorobenzyl)-2,4-dihydro-3H-1,2,4-triazol-3-one] | < 0.1 µM
20 | Cc1nc(C(C)(C)O)sc1Oc1ccc(-n2ncn(Cc3cc(F)ccc3F)c2=O)cc1F [Example 470, 4-(2,5-difluorobenzyl)-2-(3-fluoro-4-((2-(2-hydroxypropan-2-yl)-4-methylthiazol-5-yl)oxy)phenyl)-2,4-dihydro-3H-1,2,4-triazol-3-one] | < 0.1 µM
21 | Cc1nc(C(C)(C)O)sc1Oc1ccc(-n2ncn(Cc3cc(Cl)ccn3)c2=O)cc1F [Example 471, 4-((4-chloropyridin-2-yl)methyl)-2-(3-fluoro-4-((2-(2-hydroxypropan-2-yl)-4-methylthiazol-5-yl)oxy)phenyl)-2,4-dihydro-3H-1,2,4-triazol-3-one] | 1 to 10 µM
22 | Cc1c(C(C)(C)O)noc1Oc1ccc(-n2ncn(Cc3c(F)cccc3F)c2=O)cc1F [Example 472, 4-(2,6-difluorobenzyl)-2-(3-fluoro-4-((3-(2-hydroxypropan-2-yl)-4-methylisoxazol-5-yl)oxy)phenyl)-2,4-dihydro-3H-1,2,4-triazol-3-one] | 0.1 to 1 µM
23 | Cc1nc(C(C)(C)O)sc1Oc1ccc(-n2ncn(Cc3c(F)cccc3F)c2=O)cc1 [Example 473, 4-(2,6-difluorobenzyl)-2-(4-((2-(2-hydroxypropan-2-yl)-4-methylthiazol-5-yl)oxy)phenyl)-2,4-dihydro-3H-1,2,4-triazol-3-one] | < 0.1 µM
24 | CC1(C)COC(Nc2cc(Oc3ccc(-n4ncn(Cc5c(F)cccc5F)c4=O)cc3F)c(F)cn2)=N1 [Example 474, 4-(2,6-difluorobenzyl)-2-(4-((2-((4,4-dimethyl-4,5-dihydrooxazol-2-yl)amino)-5-fluoropyridin-4-yl)oxy)-3-fluorophenyl)-2,4-dihydro-3H-1,2,4-triazol-3-one] | 0.1 to 1 µM
25 | Cc1c(C#N)noc1Oc1ccc(-n2ncn(Cc3c(F)cccc3F)c2=O)cc1F [Example 475, 5-(4-(4-(2,6-difluorobenzyl)-5-oxo-4,5-dihydro-1H-1,2,4-triazol-1-yl)-2-fluorophenoxy)-4-methylisoxazole-3-carbonitrile] | < 0.1 µM
26 | Cc1c(C(N)=O)noc1Oc1ccc(-n2ncn(Cc3c(F)cccc3F)c2=O)cc1F [Example 476, 5-(4-(4-(2,6-difluorobenzyl)-5-oxo-4,5-dihydro-1H-1,2,4-triazol-1-yl)-2-fluorophenoxy)-4-methylisoxazole-3-carboxamide] | < 0.1 µM
27 | CCOC(=O)c1noc(Oc2ccc(-n3ncn(Cc4c(F)cccc4F)c3=O)cc2F)c1C [Example 477, ethyl 5-(4-(4-(2,6-difluorobenzyl)-5-oxo-4,5-dihydro-1H-1,2,4-triazol-1-yl)-2-fluorophenoxy)-4-methylisoxazole-3-carboxylate] | 0.1 to 1 µM
28 | CN(c1cc(Oc2ccc(-n3ncn(Cc4c(F)cccc4F)c3=O)cc2)ccn1)C1CC(F)(F)C1 [Example 478, 4-(2,6-difluorobenzyl)-2-(4-((2-((3,3-difluorocyclobutyl)(methyl)amino)pyridin-4-yl)oxy)phenyl)-2,4-dihydro-3H-1,2,4-triazol-3-one] | 0.1 to 1 µM
29 | Cn1ncn(Cc2ccc(-n3ncn(Cc4c(F)cccc4F)c3=O)cc2)c1=O [Example 479, 4-(2,6-difluorobenzyl)-2-(4-((1-methyl-5-oxo-1,5-dihydro-4H-1,2,4-triazol-4-yl)methyl)phenyl)-2,4-dihydro-3H-1,2,4-triazol-3-one] | 1 to 10 µM
